Read-outs that look alike come from different tables or passages of the source.
Legend:
[1] = biological target: T1, G551D CFTR (Homo sapiens, UniProt P13569, G551D); assay: YFP halide assay, HEK293 cells expressing G551D CFTR; type: cell-based; settings: for Efficacy on G551D CFTR relative to VX770: 10 μM forskolin, VX770 = 100; for Additive effect of GLPG1837 and GLPG2451 combined on G551D CFTR: 90 μM each, 1 μM forskolin; for Additive effect to VX770 on G551D CFTR: 90 μM potentiator plus 10 μM VX770, 1 μM forskolin
T1 construct: expressed in transfected cells; host or cells: HEK293, transient (jetPEI)
T1 sequence (P13569 whole entry G551D): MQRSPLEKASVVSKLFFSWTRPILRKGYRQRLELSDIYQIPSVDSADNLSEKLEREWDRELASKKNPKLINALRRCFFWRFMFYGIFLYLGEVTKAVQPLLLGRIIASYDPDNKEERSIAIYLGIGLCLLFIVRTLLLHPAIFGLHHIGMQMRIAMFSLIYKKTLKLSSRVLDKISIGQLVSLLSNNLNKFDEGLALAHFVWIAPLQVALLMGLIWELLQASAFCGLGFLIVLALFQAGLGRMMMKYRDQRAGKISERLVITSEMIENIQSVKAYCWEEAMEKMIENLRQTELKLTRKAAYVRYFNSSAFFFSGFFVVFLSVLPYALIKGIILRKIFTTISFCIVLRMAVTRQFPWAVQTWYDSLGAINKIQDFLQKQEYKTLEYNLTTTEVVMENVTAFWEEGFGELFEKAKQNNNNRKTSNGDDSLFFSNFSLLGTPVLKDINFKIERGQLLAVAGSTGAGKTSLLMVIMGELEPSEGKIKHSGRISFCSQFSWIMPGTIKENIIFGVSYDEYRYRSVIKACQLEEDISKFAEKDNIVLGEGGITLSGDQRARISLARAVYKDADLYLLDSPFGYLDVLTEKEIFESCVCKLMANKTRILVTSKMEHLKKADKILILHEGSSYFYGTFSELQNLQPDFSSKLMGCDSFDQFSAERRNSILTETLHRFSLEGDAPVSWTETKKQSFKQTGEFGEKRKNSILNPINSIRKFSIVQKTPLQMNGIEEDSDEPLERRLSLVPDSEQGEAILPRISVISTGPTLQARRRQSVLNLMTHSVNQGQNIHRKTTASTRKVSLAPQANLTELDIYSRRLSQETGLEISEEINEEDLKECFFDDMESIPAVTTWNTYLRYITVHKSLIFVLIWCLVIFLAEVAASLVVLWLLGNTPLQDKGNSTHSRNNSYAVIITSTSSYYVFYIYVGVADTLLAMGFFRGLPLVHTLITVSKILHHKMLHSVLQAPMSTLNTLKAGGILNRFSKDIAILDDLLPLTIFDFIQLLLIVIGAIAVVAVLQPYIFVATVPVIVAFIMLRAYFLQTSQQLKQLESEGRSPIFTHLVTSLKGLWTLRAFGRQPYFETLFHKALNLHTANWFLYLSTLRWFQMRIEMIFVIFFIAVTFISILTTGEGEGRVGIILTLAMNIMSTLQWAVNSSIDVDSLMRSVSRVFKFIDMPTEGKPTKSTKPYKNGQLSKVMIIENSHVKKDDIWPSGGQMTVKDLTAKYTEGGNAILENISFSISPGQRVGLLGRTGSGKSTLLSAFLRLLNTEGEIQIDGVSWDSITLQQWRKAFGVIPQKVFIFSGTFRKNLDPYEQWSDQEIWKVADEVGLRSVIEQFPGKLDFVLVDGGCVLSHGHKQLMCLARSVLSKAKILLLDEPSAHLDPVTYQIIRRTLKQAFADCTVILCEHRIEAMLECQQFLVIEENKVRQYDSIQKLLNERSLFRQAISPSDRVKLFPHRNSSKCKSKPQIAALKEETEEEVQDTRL
Description: HEK293 cells were transfected with 10–80 ng of plasmid encoding G551D, G178R, G1349D, S549N, R117H, R334W, or wild type CFTR and 20 ng of plasmid encoding YFP (H148Q/I152L/F47L) using jetPEI (Polyplus transfection). Directly after transfection, cells were seeded in black 96-well plates coated with Poly-D-lysine at a density of 70,000 cells per well. The next day, cells were incubated at 27°C for 24 h, for low temperature correction. When evaluating in a chronic setting, the potentiator concentration range was also added to the cells for 24 h. After this incubation period, cells were washed twice with DPBS with Ca^2+ and Mg^2+. Subsequently, […] of potentiator in a volume of 40 μl and incubated at room temperature for 10 min, a timepoint optimized in previous experiments resulting in a good window (positive control/negative control > 2) and signal to background ratio. YFP fluorescence was measured using an EnVision plate reader (PerkinElmer). […] The excitation wavelength was 485 nm and the emission wavelength 530 nm. The capacity of potentiators to increase CFTR channel function was expressed as 1-[fluorescence 7 s after NaI addition (F)/fluorescence before NaI addition (F0)]. Data was normalized using the formula: normalized response = 100^∗ (absolute response – negative control response)/(VX770 response – negative response) as such, VX770 response corresponds to 100. For Dose-response experiments, data was fitted using a 4 parameter hill function of the form Response = Bottom + (Top-Bottom)/(1 + 10ˆ((LogEC50-concentration)^∗HillSlope)) to determine EC50 values.

[2] = cited from earlier work
[3] = biological target: T2, F508del CFTR (Homo sapiens, UniProt P13569, DEL508-508); assay: Cell surface expression assay, HRP-tagged F508del CFTR in CFBe41o- cells; type: cell-based; design: expressed in transfected cells; settings: for Corrector activity (F508del CFTR levels at the plasma membrane): 10 μM compound, HRP-tagged F508del CFTR; for Effect on cell surface expression of VX809 rescued F508del CFTR: 24 h co-incubation with 10 μM VX809, concentration range of potentiator
T2 sequence (P13569 with tags, fused parts or gaps DEL508-508): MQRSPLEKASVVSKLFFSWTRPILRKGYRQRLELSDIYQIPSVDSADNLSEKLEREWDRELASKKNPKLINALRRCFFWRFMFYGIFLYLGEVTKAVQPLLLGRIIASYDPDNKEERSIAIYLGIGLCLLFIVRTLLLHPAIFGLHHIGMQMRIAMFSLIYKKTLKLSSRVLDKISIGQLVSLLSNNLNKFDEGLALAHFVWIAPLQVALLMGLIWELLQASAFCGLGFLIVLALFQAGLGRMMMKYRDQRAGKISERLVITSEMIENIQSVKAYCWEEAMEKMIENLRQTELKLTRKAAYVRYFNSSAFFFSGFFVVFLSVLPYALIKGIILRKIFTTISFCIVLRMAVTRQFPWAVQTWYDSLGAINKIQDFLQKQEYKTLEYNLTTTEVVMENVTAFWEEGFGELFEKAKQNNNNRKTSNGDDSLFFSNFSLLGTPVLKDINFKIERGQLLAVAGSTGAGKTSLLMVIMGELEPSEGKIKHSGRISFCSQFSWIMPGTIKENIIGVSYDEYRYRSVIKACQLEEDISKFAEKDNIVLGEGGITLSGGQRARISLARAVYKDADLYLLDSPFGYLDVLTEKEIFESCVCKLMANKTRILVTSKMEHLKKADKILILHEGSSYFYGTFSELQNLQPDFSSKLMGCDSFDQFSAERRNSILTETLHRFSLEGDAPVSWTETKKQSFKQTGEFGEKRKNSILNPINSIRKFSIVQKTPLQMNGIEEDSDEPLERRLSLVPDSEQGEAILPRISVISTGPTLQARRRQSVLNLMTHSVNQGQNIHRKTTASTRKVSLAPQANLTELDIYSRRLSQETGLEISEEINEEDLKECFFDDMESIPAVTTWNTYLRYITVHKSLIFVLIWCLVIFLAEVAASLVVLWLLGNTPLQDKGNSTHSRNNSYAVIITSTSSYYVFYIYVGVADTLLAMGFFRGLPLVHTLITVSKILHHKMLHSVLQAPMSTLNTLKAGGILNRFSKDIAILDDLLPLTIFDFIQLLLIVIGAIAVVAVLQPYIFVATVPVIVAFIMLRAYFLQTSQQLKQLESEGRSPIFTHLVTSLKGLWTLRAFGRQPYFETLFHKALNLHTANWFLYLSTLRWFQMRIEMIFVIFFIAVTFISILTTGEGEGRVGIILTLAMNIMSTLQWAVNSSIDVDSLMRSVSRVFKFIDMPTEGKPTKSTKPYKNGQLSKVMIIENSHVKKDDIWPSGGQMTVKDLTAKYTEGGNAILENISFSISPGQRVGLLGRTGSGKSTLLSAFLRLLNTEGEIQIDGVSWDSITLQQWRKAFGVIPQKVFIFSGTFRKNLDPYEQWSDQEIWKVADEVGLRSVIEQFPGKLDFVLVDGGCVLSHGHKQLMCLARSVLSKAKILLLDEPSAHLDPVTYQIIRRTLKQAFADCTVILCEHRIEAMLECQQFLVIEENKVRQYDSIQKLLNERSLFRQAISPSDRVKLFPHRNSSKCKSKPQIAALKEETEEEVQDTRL
Description: CFBE41o^- TetON cells expressing HRP tagged F508del-CFTR ([Veit et al., 2012]) were seeded at a density of 4,000 cells per well in white 384-well plates (Greiner). Medium containing 500 ng/ml doxycycline was used to induce expression of the F508del-CFTR–HRP construct. After 3 days, cells were treated with corrector and/or potentiator compounds and transferred to an incubator at 33°C. On day 4, cells were washed 5 times with PBS containing Ca^2+ and Mg^2+ using a Bio-Tek plate washer and incubated with a chemiluminescent HRP substrate (SuperSignal West Pico Chemiluminescent Substrate, Thermo Scientific) for 15 min. Chemiluminescence was measured using an Envision plate reader (Perkin Elmer).

[4] = biological target: T2, F508del CFTR; assay: Patch clamp, inside-out patches of CHO cells expressing F508del CFTR; type: cell-based; design: expressed in transfected cells; host or cells: CHO cells, transient, pcDNA plasmid
Description: A more complete description of the patch-clamp methodology can be found in a recent publication ([Lin et al., 2016]). Briefly, CHO (Chinese Hamster Ovary) cells were transiently transfected with pcDNA plasmids containing various CFTR constructs and pEGFP-C3. After transfection, cells were trypsinized and plated onto 35 mm tissue culture dishes dispersed with sterilized glass chips. Electrophysiological experiments were performed 3–7 days following transfection.
Patch-clamp experiments were performed at room temperature with an EPC-9 patch clamp amplifier (HEKA Instruments, Holliston, MA, United States). Recording microelectrodes were made from borosilicate capillary glass with a two-stage pipette puller (Narishige, Tokyo, Japan). The pipette tip was polished with a home-made microforge before use. The pipette solution contained (in mM) 140 NMDG (N-methyl-d-glucamine)-Cl (Fisher Biotec), 2 MgCl2 (Fisher Biotec, Perth, Australia), 5 CaCl2 (Fisher Biotec), and 10 HEPES (Fisher Biotec), pH 7.4, with NMDG (see [Lin et al., 2016] for details). The pipette resistance when filled with the regular pipette solution was 3–5 MΩ. Once the tip of the pipette and the cell membrane established GΩ resistance, the electrode was quickly pulled away from the cell to form an inside-out patch, where the cytosolic side of the membrane was exposed to the perfusion solution. Cells were perfused with a bath solution having (in mM) 145 NaCl (Fisher Biotec), 5 KCl (Fisher Biotec), 2 MgCl2, 1 CaCl2, 5 glucose (Fisher Biotec), 5 HEPES, and 20 sucrose (Fisher Biotec), pH 7.4, with NaOH (Fisher Biotec). After establishing an inside-out configuration, the patch was perfused with a standard perfusion solution (i.e., intracellular solution) containing (in mM) 150 NMDG-Cl, 2 MgCl2, 10 EGTA (Fisher Biotec), and 8 Tris (Fisher Biotec), pH 7.4, with NMDG (see [Lin et al., 2016] for details) containing the catalytic subunit of protein kinase A (PKA) and 2 mM ATP. Once the phosphorylation-dependent activation of CFTR reached a plateau, 3 μM GLPG1837 or 10 μM GLPG2451 was applied in the continuous presence of 2 mM ATP until a steady state was attained.
Microscopic kinetic analysis was performed with a program provided by Dr. László Csanády (Semmelweis University, Budapest, Hungary) ([Csanády, 2000]). Experiments were performed 4-5 times and averages and SEM were calculated. The resulting Po values and single-channel kinetic parameters were compared with paired t-test (Excel, Microsoft); P < 0.05 is considered statistically significant.

Row | SMILES | Efficacy on G551D CFTR relative to VX770 [1] | Additive effect of GLPG1837 and GLPG2451 combined on G551D CFTR [1] | Additive effect to VX770 on G551D CFTR [1] | Tolerability in healthy volunteers ([2]; ref Brearley et al., 2017) | Corrector activity (F508del CFTR levels at the plasma membrane) [3] | Effect on cell surface expression of VX809 rescued F508del CFTR [3] | Closed time constant τc, F508del CFTR ([4]; 10 μM GLPG2451) | Open time constant τo, F508del CFTR ([4]; 10 μM GLPG2451) | Open probability Po, F508del CFTR ([4]; 10 μM GLPG2451, pre-potentiator Po 0.05 ± 0.01) | Tolerability in healthy volunteers ([2]; single doses up to 2,000 mg and 14 days dosing up to 800 mg, ref Vanhoutte et al., 2015) | Closed time constant τc, F508del CFTR ([4]; 3 μM GLPG1837) | Open time constant τo, F508del CFTR ([4]; 3 μM GLPG1837) | Open probability Po, F508del CFTR ([4]; 3 μM GLPG1837, pre-potentiator Po 0.04 ± 0.01)
1 | C[C@H](O)CNC(=O)c1ncc(S(=O)(=O)c2ccc(OC(F)(F)F)cc2)cc1N [GLPG2451] | 171% | failed to show any additive effect | didn’t show any additive effect | well tolerated | no corrector activity | minor effect on F508del CFTR rescued protein only at the highest concentration evaluated | 4.44 ± 2.23 s | 5.05 ± 1.82 s | 0.57 ± 0.05 |  |  |  | 
2 | CC1(C)Cc2c(sc(NC(=O)c3ccn[nH]3)c2C(N)=O)C(C)(C)O1 [GLPG1837, N-(3-Carbamoyl-5,5,7,7-tetramethyl-5,7-dihydro-4H-thieno[2,3-c]pyran-2-yl)-lH-pyrazole-5-carboxamide] | 260% | failed to show any additive effect | didn’t show any additive effect |  | no corrector activity | some reduction of partial rescued F508del CFTR but with a concentration response curve shifted to the right when compared to VX770 |  |  |  | well tolerated | 2.18 ± 0.52 s | 3.29 ± 0.82 s | 0.55 ± 0.05
